Measurements taken from ChEMBL document CHEMBL5465560, “Selectivity Literature for EUbOPEN Chemogenomic Library” (2024).

Tests used:
[1] = target: Tyrosine-protein kinase Fgr (Homo sapiens) (UniProt P09769); experiment: Selectivity interaction (KinomeScan (DiscoverX)) EUB0001049a FGR; conditions: at 1 µM
[2] = target: T1, Interleukin-1 receptor-associated kinase 4 (Homo sapiens) (UniProt Q9NWZ3); experiment: Selectivity interaction (KinomeScan (DiscoverX)) EUB0000666a IRAK4; conditions: at 10 µM
T1 sequence (whole entry): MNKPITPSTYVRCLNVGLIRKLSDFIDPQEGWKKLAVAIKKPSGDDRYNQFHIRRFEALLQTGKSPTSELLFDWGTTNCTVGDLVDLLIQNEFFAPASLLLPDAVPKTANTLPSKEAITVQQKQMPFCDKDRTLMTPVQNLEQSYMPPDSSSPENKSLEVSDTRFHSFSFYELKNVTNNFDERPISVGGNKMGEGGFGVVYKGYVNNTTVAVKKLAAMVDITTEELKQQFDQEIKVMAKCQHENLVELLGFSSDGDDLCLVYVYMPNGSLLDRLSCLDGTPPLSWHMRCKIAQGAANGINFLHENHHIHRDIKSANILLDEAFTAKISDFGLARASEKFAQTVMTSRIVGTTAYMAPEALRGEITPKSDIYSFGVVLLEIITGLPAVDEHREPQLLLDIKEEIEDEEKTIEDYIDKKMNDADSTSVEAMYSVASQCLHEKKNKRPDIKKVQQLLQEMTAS

[3] = target: Histone-lysine N-methyltransferase SETDB1 (Homo sapiens) (UniProt Q15047); conditions: at 10 µM
[4] = Selectivity interaction (KinomeScan (DiscoverX)) EUB0000229b PKNB; conditions: at 1 µM
[5] = target: Serine/threonine-protein kinase 10 (Homo sapiens) (UniProt O94804); experiment: Selectivity interaction (Kinase panel (KiNativ target engagement assay in Jurkat cells)) EUB0001635a STK10; assay type: cell-based; conditions: Selectivity number of off-targets 0.0, Selectivity number of targets 233.0, Source Knowledge https://www.sciencedirect.com/science/article/pii/S2451945619300674?via%3Dihub, at 1 µM
[6] = target: Tyrosine-protein kinase CSK (Homo sapiens) (UniProt P41240); conditions: at 10 µM
[7] = target: Serine/threonine-protein kinase PRP4 homolog (Homo sapiens) (UniProt Q13523); experiment: Selectivity interaction (ActivX KiNativ screen (kinase selectivity in THP-1 cell lysates)) EUB0000639a PRPF4; assay type: subcellular; conditions: lysate
[8] = target: Serine/threonine-protein kinase pim-2 (Homo sapiens, UniProt Q9P1W9); experiment: Selectivity interaction (KinomeScan (DiscoverX)) EUB0001619a PIM2; conditions: at 1 µM
[9] = test system: Tyrosine-protein kinase ABL1 (Homo sapiens), P00519 [T315I]; experiment: Selectivity interaction (KinomeScan (DiscoverX)) EUB0000607a ABL1; conditions: at 10 µM
[10] = target: T2, Serine/threonine-protein kinase RIO1 (Homo sapiens) (UniProt Q9BRS2); experiment: Selectivity interaction (KINOMEscan (DiscoverX)) EUB0001868a RIOK1; conditions: at 1 µM
T2 sequence (whole entry): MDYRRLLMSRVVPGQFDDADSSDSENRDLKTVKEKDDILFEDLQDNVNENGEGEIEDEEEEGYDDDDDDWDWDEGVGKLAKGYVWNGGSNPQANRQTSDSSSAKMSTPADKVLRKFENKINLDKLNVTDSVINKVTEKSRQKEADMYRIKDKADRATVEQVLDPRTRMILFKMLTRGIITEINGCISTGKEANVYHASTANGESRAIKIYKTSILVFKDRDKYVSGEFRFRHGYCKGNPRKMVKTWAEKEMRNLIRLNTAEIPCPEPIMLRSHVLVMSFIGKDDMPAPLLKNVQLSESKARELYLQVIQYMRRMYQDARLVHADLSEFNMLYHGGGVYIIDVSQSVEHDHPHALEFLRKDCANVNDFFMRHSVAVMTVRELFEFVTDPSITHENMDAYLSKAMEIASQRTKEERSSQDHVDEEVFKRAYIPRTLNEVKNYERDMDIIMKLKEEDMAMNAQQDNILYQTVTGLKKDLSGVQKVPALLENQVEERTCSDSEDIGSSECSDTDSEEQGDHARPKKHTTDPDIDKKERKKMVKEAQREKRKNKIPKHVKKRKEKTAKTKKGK

[11] = target: Histone-lysine N-methyltransferase 2C (Homo sapiens) (UniProt Q8NEZ4); experiment: Selectivity interaction (Methyltransferase screen (radiometric assays, panel of 8 PRMTs, 21 protein lysine methyltransferases, 3 DNA methyltransferases, and one RNA methyltransferase)) EUB0000271b MLL3
[12] = target: T3, Histone-lysine N-methyltransferase SMYD3 (Homo sapiens) (UniProt Q9H7B4); experiment: Selectivity interaction (Methyltransferase screen (radiometric assays, panel of 8 PRMTs, 21 protein lysine methyltransferases, 3 DNA methyltransferases, and one RNA methyltransferase)) EUB0000271b SMYD3
T3 sequence (whole entry): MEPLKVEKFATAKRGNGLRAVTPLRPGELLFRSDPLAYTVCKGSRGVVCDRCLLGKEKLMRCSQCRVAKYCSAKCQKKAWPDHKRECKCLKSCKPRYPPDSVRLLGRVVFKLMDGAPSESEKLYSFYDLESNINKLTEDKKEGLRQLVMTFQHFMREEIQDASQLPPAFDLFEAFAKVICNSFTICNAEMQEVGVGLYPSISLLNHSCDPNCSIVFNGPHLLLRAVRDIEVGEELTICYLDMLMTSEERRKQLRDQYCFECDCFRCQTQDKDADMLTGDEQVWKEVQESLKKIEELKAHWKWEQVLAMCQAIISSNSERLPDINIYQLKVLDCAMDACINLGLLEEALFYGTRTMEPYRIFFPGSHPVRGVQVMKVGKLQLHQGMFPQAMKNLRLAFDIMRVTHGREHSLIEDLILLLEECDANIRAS

[13] = target: Receptor tyrosine-protein kinase erbB-2 (Homo sapiens, UniProt P04626); experiment: Selectivity interaction (ProQinase) EUB0000171b ERBB2
Chain of Receptor tyrosine-protein kinase erbB-2 (P04626 whole entry): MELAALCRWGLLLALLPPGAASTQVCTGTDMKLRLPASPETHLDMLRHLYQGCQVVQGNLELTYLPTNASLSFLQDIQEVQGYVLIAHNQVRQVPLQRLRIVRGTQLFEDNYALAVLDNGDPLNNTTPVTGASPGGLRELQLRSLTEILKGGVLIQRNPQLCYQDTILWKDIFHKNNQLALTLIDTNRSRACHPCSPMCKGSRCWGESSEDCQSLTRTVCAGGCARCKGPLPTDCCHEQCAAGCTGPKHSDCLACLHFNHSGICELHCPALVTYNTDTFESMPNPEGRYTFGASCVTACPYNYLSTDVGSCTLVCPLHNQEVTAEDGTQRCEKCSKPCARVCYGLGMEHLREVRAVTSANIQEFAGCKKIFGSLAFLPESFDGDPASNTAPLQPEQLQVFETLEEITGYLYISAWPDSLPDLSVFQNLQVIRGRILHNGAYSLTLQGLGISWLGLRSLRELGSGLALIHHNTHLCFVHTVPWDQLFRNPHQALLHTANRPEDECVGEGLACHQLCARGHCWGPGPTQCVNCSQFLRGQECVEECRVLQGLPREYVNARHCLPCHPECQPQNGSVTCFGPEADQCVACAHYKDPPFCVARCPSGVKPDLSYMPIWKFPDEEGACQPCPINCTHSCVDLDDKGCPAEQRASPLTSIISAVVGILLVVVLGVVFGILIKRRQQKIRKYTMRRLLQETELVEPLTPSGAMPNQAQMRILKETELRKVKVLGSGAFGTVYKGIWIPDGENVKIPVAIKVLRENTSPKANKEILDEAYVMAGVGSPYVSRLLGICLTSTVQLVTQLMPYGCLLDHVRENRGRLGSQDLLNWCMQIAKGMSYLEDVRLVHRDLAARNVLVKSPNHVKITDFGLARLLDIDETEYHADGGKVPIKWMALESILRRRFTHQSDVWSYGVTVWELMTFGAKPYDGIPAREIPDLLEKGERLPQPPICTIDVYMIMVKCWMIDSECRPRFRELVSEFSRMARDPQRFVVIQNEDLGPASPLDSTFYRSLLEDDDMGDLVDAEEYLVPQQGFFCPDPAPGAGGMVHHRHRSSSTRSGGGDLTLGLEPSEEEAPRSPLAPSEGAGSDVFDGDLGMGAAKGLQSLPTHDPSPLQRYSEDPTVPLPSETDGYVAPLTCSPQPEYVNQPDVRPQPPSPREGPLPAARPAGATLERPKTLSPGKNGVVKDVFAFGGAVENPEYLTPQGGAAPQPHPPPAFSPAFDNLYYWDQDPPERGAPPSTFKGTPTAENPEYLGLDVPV

Chain of Serine/threonine-protein kinase PRP4 homolog (Homo sapiens) (Q13523 whole entry): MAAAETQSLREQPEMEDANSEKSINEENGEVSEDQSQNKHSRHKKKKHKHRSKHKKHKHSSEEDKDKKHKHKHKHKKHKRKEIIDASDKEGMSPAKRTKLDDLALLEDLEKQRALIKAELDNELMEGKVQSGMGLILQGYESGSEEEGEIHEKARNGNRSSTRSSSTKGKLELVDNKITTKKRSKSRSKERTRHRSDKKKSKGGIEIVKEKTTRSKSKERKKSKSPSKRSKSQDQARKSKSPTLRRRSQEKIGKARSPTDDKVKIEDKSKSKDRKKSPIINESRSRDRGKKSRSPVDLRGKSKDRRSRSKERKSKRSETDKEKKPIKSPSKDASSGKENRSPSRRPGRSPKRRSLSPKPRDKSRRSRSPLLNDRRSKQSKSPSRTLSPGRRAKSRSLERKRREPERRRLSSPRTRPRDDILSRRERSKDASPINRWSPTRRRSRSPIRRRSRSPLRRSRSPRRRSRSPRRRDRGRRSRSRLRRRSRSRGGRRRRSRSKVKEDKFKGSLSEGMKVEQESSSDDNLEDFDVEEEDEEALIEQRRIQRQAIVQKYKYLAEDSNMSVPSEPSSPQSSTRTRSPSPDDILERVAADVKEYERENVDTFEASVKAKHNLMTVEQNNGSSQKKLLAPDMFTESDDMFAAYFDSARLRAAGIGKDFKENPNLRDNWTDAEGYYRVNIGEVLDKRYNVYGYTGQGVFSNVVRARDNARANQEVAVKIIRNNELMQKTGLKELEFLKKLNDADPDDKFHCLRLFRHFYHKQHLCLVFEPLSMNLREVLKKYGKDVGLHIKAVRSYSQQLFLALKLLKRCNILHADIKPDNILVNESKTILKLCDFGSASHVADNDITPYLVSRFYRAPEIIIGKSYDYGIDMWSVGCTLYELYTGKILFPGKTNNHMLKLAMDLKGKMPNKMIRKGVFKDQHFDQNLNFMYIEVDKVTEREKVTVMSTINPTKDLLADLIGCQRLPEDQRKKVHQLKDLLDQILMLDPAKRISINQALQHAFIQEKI
Chain of Tyrosine-protein kinase Fgr (Homo sapiens) (P09769 2-529 limits assumed): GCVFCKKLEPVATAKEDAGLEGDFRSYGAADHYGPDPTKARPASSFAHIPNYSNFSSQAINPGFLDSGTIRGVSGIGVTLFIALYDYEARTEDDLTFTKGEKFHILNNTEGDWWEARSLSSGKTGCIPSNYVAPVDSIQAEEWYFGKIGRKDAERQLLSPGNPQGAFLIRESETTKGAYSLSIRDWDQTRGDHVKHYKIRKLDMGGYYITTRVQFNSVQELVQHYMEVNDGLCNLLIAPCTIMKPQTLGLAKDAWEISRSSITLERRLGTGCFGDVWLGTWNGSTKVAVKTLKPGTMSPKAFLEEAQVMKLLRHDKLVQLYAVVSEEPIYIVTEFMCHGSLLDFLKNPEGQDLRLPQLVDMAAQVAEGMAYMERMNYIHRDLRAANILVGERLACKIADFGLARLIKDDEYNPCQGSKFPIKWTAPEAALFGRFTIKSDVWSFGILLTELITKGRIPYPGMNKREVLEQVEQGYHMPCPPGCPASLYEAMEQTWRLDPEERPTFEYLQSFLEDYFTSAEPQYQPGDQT
Chain of Tyrosine-protein kinase CSK (Homo sapiens) (P41240 2-450 limits assumed): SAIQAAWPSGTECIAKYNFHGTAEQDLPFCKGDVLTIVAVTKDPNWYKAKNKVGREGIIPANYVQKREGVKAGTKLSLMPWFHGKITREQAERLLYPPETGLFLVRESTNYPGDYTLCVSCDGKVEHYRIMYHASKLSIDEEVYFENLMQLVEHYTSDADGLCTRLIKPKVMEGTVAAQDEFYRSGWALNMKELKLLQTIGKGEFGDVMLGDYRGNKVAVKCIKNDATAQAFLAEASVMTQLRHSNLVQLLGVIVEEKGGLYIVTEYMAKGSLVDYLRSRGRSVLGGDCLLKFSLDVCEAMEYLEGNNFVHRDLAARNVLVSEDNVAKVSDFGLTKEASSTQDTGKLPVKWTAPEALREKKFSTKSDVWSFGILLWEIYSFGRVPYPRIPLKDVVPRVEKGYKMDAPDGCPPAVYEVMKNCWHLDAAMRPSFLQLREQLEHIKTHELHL
Chain of Serine/threonine-protein kinase pim-2 (Q9P1W9 whole entry, looked up): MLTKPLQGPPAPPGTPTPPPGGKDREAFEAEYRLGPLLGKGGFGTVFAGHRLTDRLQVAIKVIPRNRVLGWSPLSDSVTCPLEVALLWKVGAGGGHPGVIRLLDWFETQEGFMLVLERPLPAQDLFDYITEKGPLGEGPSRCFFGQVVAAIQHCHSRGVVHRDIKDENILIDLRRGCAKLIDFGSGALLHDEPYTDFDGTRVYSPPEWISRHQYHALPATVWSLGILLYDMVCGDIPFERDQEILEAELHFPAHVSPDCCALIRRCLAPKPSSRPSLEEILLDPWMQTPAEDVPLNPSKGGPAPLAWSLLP
Chain of Serine/threonine-protein kinase 10 (Homo sapiens) (O94804 whole entry, looked up): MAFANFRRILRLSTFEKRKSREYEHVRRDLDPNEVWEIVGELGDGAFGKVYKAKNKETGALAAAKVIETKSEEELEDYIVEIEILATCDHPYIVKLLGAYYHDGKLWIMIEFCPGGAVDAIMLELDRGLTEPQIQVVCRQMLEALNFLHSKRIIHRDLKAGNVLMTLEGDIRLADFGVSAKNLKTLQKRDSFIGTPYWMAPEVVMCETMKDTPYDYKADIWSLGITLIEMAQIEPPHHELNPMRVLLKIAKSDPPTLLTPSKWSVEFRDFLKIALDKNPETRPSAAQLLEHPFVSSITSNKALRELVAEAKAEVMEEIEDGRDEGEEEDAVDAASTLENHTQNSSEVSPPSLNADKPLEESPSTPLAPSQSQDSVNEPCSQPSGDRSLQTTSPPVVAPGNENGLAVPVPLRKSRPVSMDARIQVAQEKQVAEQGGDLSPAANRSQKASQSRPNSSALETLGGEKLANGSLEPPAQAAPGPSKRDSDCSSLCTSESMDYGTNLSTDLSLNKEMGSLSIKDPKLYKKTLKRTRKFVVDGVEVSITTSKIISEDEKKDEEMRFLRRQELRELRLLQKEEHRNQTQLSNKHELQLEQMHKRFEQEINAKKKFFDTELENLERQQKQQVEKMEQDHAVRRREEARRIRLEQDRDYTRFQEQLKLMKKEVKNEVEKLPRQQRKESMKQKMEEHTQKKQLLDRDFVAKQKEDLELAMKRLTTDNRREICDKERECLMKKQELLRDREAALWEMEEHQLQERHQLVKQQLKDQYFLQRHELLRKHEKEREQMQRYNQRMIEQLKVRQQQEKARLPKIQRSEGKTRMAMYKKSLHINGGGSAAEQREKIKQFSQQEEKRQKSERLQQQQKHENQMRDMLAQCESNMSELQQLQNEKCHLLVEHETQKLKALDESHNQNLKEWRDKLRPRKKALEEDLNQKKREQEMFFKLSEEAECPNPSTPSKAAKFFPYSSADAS

## COc1cc(Nc2nc(C)cc(-c3cnn4nc(OC)ccc34)n2)cc(C(F)(F)F)c1
[1]
  % of control: 94%

## O=C(NOC[C@H](O)CO)c1ccc(F)c(F)c1Nc1ccc(I)cc1F
[2]
  % of control: 100%

## CNCCN1CCC(c2cc(CN(C)C(=O)c3cccc(Oc4ccccc4)c3)ccn2)CC1
[3]
  % activity: > 90%

## COc1cc(N(C)c2ccnc3ccc(C(F)(F)F)cc23)cc(OC)c1OC
[4]
  % binding: 100%

## C=CC(=O)Nc1ccc(C(=O)Nc2[nH]nc3c2CN(C(=O)N[C@H](CN(C)C)c2ccccc2)C3(C)C)cc1
[5]
  % of engagement: -1.6%

## CCN(CC)CCCCNc1ncc2cc(-c3cc(OC)cc(OC)c3)c(NC(=O)NC(C)(C)C)nc2n1
[6]
  % of control: 100%

## CC[C@@H]1[C@H](F)C(=O)N[C@@H]1COc1nccc2cc(C(N)=O)c(OC)cc12 [ZIMLOVISERTIB]
[7]; at 0.01 µM
  % of inhibition: -2.3%
[7]; at 0.04 µM
  % of inhibition: 7.1%
[7]; at 0.2 µM
  % of inhibition: 29.8%
[7]; at 1 µM
  % of inhibition: 73.9%
[7]; at 5 µM
  % of inhibition: 86.3%

## N#Cc1cccc(-c2c[nH]c3ncnc(N4CCOCC4)c23)c1
[8]
  % of control: 100%

## CNC(=O)Nc1ccc(-c2nc(N3CC4CCC(C3)O4)c3cnn(C4CCC5(CC4)OCCO5)c3n2)cc1
[9]
  % of control: 80%

## Cc1cc(-c2ccnc(Nc3cnn(C)c3)n2)ccc1CNC(=O)N1CC(OC(C)C)C1
[10]
  % of control: 17%

## Cc1cc(C)cc([C@@H]2c3cc(C)ccc3NC(=O)CN2C(=O)c2ccc(Br)s2)c1
[11]; at 1 µM
  % of activity: 104%
[11]; at 10 µM
  % of activity: 97%
[12]; at 1 µM
  % of activity: 100%
[12]; at 10 µM
  % of activity: 98.3%

## C=CC(=O)Nc1cccc(C(=O)Nc2ccc(Nc3cc(-c4[nH]c(SC)nc4C)ccn3)cc2)c1
[13]; at 1 µM
  % of control: 92%
[13]; at 5 µM
  % of control: 94%
